In publication PMC11589570, “Critical assessment of LC3/GABARAP ligands used for degrader development and ligandability of LC3/GABARAP binding pockets” (Nature Communications, 2024):
Values joined by “and” are separate entries in the source; they are usually repeats but may differ in a detail not shown here. Equal entries are not always repeated.

Assays:
LC3A = LC3A (Homo sapiens, UniProt Q9H492); assay: FP assay with 10O5- and 8F20-based dye-linked tracers 16 and 17; conditions: for Fluorescence polarization, protein titration LC3A with tween / Fluorescence polarization, protein titration LC3A without tween: replicates; for Fluorescence polarization, displacement experiment LC3A: competing compound not named, duplicates
From the text: (§2) The only experimental difference in our FP assay setup was the addition of 0.05% Tween-20, which is routinely used[27] to suppress unspecific binding of compounds to proteins.
(§3) Fluorescence polarization assay utilizing tracers 16 and 17 for interaction studies with LC3A
(§4) (upper panels) and LC3B (lower panels). The left panels depict protein titration measurements
(§5) detergent in the buffer to suppress unspecific binding. Middle panels depict displacement
Data were collected in technical
(§6) triplicates with error bars expressing the SD (n=3).

LC3B = LC3B (Homo sapiens, UniProt Q9GZQ8); assay: as above; conditions: for Fluorescence polarization, protein titration LC3B with tween / Fluorescence polarization, protein titration LC3B without tween: replicates; for Fluorescence polarization, displacement experiment LC3B: competing compound not named, duplicates
From the text: as §2, §3, §4, §5
Data were collected in technical
as §6

[1] = target: T1, NanoLuc-fusion full-length LC3B (Homo sapiens, UniProt Q9GZQ8); assay: NanoBRET cellular target engagement assay in HEK293T cells; assay type: cell-based; conditions: NanoLuciferase-tagged LC3B, replicates
T1 construct: a fluorescent donor (in this case full length LC3A and LC3B); expressed in transfected cells; host or cells: HEK293T (ATCC; CRL-11268)
Protocol: (§1) NanoBRET cellular target engagement assay: Constructs contained the cDNA of full-length LC3A and LC3B cloned in frame with an N-terminal NanoLuc-fusion. Plasmids were transfected into HEK293T (ATCC; CRL-11268) cells using FuGENE HD (Promega, E2312) and proteins were allowed to express for 20 h. 10O5 and 8F20-based tracers were titrated to the protein as depicted in Supplementary Fig. 4d. For competition experiments, 1 µM of the tracers was pipetted into white 384-well plates (Greiner 781 207) using an Echo 550 acoustic dispenser (Labcyte) containing LC3A/LC3B expressing transfected cells at a density of 2.5 × 10^5 cells/mL in Opti-MEM without phenol red (Life Technologies). The system was allowed to equilibrate for 2 h at 37 °C and 5% CO2 prior to BRET measurements. To measure BRET, NanoBRET NanoGlo Substrate + Extracellular NanoLuc Inhibitor (Promega, N2540) was added as per the manufacturer’s protocol, and filtered luminescence was measured on a PHERAstar plate reader (BMG Labtech) equipped with a luminescence filter pair (450 nm BP filter (donor) and 610 nm LP filter (acceptor)). Competitive displacement data were then plotted using GraphPad Prism 9.3 software using a normalized 3-parameter curve fit. A detailed step-by-step protocol for this assay is described in Schwalm..

[2] = target: T2, NanoLuc-fusion full-length LC3A (Homo sapiens, UniProt Q9H492); assay: as above; assay type: cell-based; conditions: NanoLuciferase-tagged LC3A, replicates
T2 construct: a fluorescent donor (in this case full length LC3A and LC3B); expressed in transfected cells; host or cells: HEK293T (ATCC; CRL-11268)
Protocol: as §1

## O=C(CCC1=[N+]2C(=Cc3ccc(-c4ccc[nH]4)n3[B-]2(F)F)C=C1)NCCCOCCOCCOCCCNC(=O)COc1c(Br)cc(C=C2C(=O)Nc3ccc(I)cc32)cc1Br (mixture of isomers) [Tracer 16]
LC3A; Protein 0.1 µM
  Fluorescence polarization, protein titration LC3A with tween: 17 and 27 and 22 and 26
  Fluorescence polarization, protein titration LC3A without tween: 141 and 128 and 122 and 148
LC3A; Protein 0.25 µM
  Fluorescence polarization, protein titration LC3A with tween: 23 and 27 (2×) and 19
  Fluorescence polarization, protein titration LC3A without tween: 184 and 161 and 131 and 173
LC3A; Protein 0.5 µM
  Fluorescence polarization, protein titration LC3A with tween: 22 and 18 and 24 and 23
  Fluorescence polarization, protein titration LC3A without tween: 214 and 168 and 152 and 148
LC3A; Protein 1 µM
  Fluorescence polarization, protein titration LC3A with tween: 36 and 25 and 24 and 27
  Fluorescence polarization, protein titration LC3A without tween: 178 and 174 and 173 and 142
LC3A; Protein 5 µM
  Fluorescence polarization, protein titration LC3A with tween: 23 and 19 and 21 and 25
  Fluorescence polarization, protein titration LC3A without tween: 196 and 185 and 203 and 124
LC3A; Protein 10 µM
  Fluorescence polarization, protein titration LC3A with tween: 18 and 19 and 20 and 25
  Fluorescence polarization, protein titration LC3A without tween: 234 and 191 and 193 and 156
LC3A; Protein 25 µM
  Fluorescence polarization, protein titration LC3A with tween: 18 and 17 and 26 and 19
LC3A; Protein 50 µM
  Fluorescence polarization, protein titration LC3A with tween: 29 and 17 and 28 and 31
  Fluorescence polarization, protein titration LC3A without tween: 218 and 219 and 177 and 165
LC3A; log Compound [M] -4.6031
  Fluorescence polarization, displacement experiment LC3A: 87.7778 and 70
LC3A; log Compound [M] -5.05839
  Fluorescence polarization, displacement experiment LC3A: 106.667 and 93.3333
LC3A; log Compound [M] -5.42608
  Fluorescence polarization, displacement experiment LC3A: 111.111 and 106.667
LC3A; log Compound [M] -5.727
  Fluorescence polarization, displacement experiment LC3A: 116.667 and 108.889
LC3A; log Compound [M] -6.20412
  Fluorescence polarization, displacement experiment LC3A: 80 and 87.7778
LC3A; log Compound [M] -6.6031
  Fluorescence polarization, displacement experiment LC3A: 94.4444 and 87.7778
LC3A; log Compound [M] -7.05839
  Fluorescence polarization, displacement experiment LC3A: 96.6667 and 90
LC3A; log Compound [M] -7.42608
  Fluorescence polarization, displacement experiment LC3A: 98.8889 and 88.8889
LC3A; log Compound [M] -7.727
  Fluorescence polarization, displacement experiment LC3A: 95.5556 and 110
LC3A; log Compound [M] -8.20412
  Fluorescence polarization, displacement experiment LC3A: 83.3333 and 101.111
LC3A; log Compound [M] -8.60189
  Fluorescence polarization, displacement experiment LC3A: 82.2222 and 100
LC3B; Protein 0.1 µM
  Fluorescence polarization, protein titration LC3B with tween: 14 and 24 and 21 and 25
  Fluorescence polarization, protein titration LC3B without tween: 191 and 155 and 157 and 173
LC3B; Protein 0.25 µM
  Fluorescence polarization, protein titration LC3B with tween: 30 and 20 (2×) and 28
  Fluorescence polarization, protein titration LC3B without tween: 187 and 186 and 175 and 167
LC3B; Protein 0.5 µM
  Fluorescence polarization, protein titration LC3B with tween: 23 and 18 and 30 and 16
  Fluorescence polarization, protein titration LC3B without tween: 191 and 197 and 195 and 171
LC3B; Protein 1 µM
  Fluorescence polarization, protein titration LC3B with tween: 18 and 20 and 17 and 25
  Fluorescence polarization, protein titration LC3B without tween: 223 and 203 and 198 and 217
LC3B; Protein 5 µM
  Fluorescence polarization, protein titration LC3B with tween: 24 (2×) and 19 and 17
  Fluorescence polarization, protein titration LC3B without tween: 203 and 175 and 213 and 191
LC3B; Protein 10 µM
  Fluorescence polarization, protein titration LC3B with tween: 26 and 22 and 24 and 28
  Fluorescence polarization, protein titration LC3B without tween: 222 and 196 and 207 and 175
LC3B; Protein 25 µM
  Fluorescence polarization, protein titration LC3B with tween: 25 and 29 and 18 and 31
  Fluorescence polarization, protein titration LC3B without tween: 233 and 224 and 191 and 192
LC3B; Protein 50 µM
  Fluorescence polarization, protein titration LC3B with tween: 16 and 30 and 20 and 21
  Fluorescence polarization, protein titration LC3B without tween: 207 and 200 and 195 and 162
LC3B; log Compound [M] -4.6031
  Fluorescence polarization, displacement experiment LC3B: 127.5 and 111.25
LC3B; log Compound [M] -5.05839
  Fluorescence polarization, displacement experiment LC3B: 100 and 118.75
LC3B; log Compound [M] -5.42608
  Fluorescence polarization, displacement experiment LC3B: 91.25 and 100.625
LC3B; log Compound [M] -5.727
  Fluorescence polarization, displacement experiment LC3B: 105 and 99.375
LC3B; log Compound [M] -6.20412
  Fluorescence polarization, displacement experiment LC3B: 76.875 and 78.125
LC3B; log Compound [M] -6.6031
  Fluorescence polarization, displacement experiment LC3B: 97.5 and 96.25
LC3B; log Compound [M] -7.05839
  Fluorescence polarization, displacement experiment LC3B: 95 and 98.75
LC3B; log Compound [M] -7.42608
  Fluorescence polarization, displacement experiment LC3B: 104.375 and 100
LC3B; log Compound [M] -7.727
  Fluorescence polarization, displacement experiment LC3B: 103.125 and 101.875
LC3B; log Compound [M] -8.20412
  Fluorescence polarization, displacement experiment LC3B: 91.25 and 75.625
LC3B; log Compound [M] -8.60189
  Fluorescence polarization, displacement experiment LC3B: 93.125 and 92.5
[1]; log tracer [M] -6.00109
  NanoBRET signal, tracer titration, LC3B: 120.842 and 122.882 and 129.602 and 128.339
[1]; log tracer [M] -6.30155
  NanoBRET signal, tracer titration, LC3B: 120.38 and 105.763 and 124.568 and 118.005
[1]; log tracer [M] -6.60241
  NanoBRET signal, tracer titration, LC3B: 113.602 and 104.043 and 104.401 and 107.212
[1]; log tracer [M] -6.90309
  NanoBRET signal, tracer titration, LC3B: 98.6453 and 100.848 and 108.512 and 103.133
[1]; log tracer [M] -7.30112
  NanoBRET signal, tracer titration, LC3B: 89.1385 and 91.7873 and 88.9398 and 88.605
[1]; log tracer [M] -7.60206
  NanoBRET signal, tracer titration, LC3B: 87.7818 and 86.5962 and 85.9928 and 88.5055
[1]; log tracer [M] -7.92154
  NanoBRET signal, tracer titration, LC3B: 85.4561 and 91.534 and 90.0484 and 87.589
[1]; log tracer [M] -8.22214
  NanoBRET signal, tracer titration, LC3B: 87.644 and 91.0185 and 90.3527 and 95.3228
[1]; log tracer [M] -8.52302
  NanoBRET signal, tracer titration, LC3B: 88.7452 and 86.3664 and 89.605 and 108.381
[1]; log tracer [M] -8.82391
  NanoBRET signal, tracer titration, LC3B: 86.7783 and 81.6186 and 84.8664 and 94.2613
[1]; log tracer [M] -9.00004
  NanoBRET signal, tracer titration, LC3B: 83.8822 and 80.9003 and 85.0772 and 83.4655
[2]; log tracer [M] -6.00109
  NanoBRET signal, tracer titration, LC3A: 124.819 and 118.345 and 124.774 and 114.881
[2]; log tracer [M] -6.30155
  NanoBRET signal, tracer titration, LC3A: 112.067 and 104.028 and 114.067 and 103.426
[2]; log tracer [M] -6.60241
  NanoBRET signal, tracer titration, LC3A: 103.182 and 101.845 and 103.925 and 98.4465
[2]; log tracer [M] -6.90309
  NanoBRET signal, tracer titration, LC3A: 99.2084 and 97.2576 and 109.844 and 92.211
[2]; log tracer [M] -7.30112
  NanoBRET signal, tracer titration, LC3A: 98.651 and 96.9847 and 99.2163 and 92.7664
[2]; log tracer [M] -7.60206
  NanoBRET signal, tracer titration, LC3A: 97.6362 and 98.7001 and 95.2489 and 95.6855
[2]; log tracer [M] -7.92154
  NanoBRET signal, tracer titration, LC3A: 98.1785 and 98.6876 and 96.8478 and 95.5754
[2]; log tracer [M] -8.22214
  NanoBRET signal, tracer titration, LC3A: 94.3049 and 97.3658 and 91.0337 and 96.1748
[2]; log tracer [M] -8.52302
  NanoBRET signal, tracer titration, LC3A: 97.3466 and 97.3205 and 85.6953 and 96.3749
[2]; log tracer [M] -8.82391
  NanoBRET signal, tracer titration, LC3A: 89.2788 and 95.7646 and 83.5217 and 94.9158
[2]; log tracer [M] -9.00004
  NanoBRET signal, tracer titration, LC3A: 83.6211 and 94.4654 and 83.1958 and 94.9397
